In patent US20130071931A1, “PROCESS FOR HEPATIC DIFFERENTIATION FROM INDUCED HEPATIC STEM CELLS, AND INDUCED HEPATIC PROGENITOR CELLS DIFFERENTIATED THEREBY” (NATIONAL CANCER CENTER, priority 2011, published 2013):
Where a name gives a salt, the structure may show the parent alone.

Columns and labels:
[1] = system: human induced hepatic stem cells NGC1-1; assay: Quantitative RT-PCR, differentiation with TGF-β signaling inhibitors (Example 11); type: cell-based; conditions: cell samples Nos. 1141-1145: 0.5 μM inhibitor in ReproStem + 10 ng/mL aFGF, no feeder cells, Matrigel, 7 days after seeding; No. 1133 taken as 1
Description: The resultant cell samples are respectively referred to as “Nos. 1141-1145”. No. 1140 was cultured in the absence of any inhibitor. Nos. 1141-1145 were cultured in the presence of the following inhibitors, respectively. No. 1141: […] Cat. No. 2939) No. 1142: […] MERCK Calbiochem; Cat. […] MERCK Calbiochem; Cat. […] Cayman; Cat. No. 13031) No. 1145: […] Cayman; Cat. No. 13341). […] Seven days after the seeding, the cells were lysed in 1 mL/well of a QIAzol reagent to prepare the total RNA from the cell lysate using the miRNeasy Mini Kit (Qiagen). The total RNA was subjected to quantitative RT-PCR using the iScript Advanced cDNA synthesis kit, the SsoAdvanced SYBR Green Supremix ([…]), and the CFX96 Real-Time System C1000 Thermal Cycler, all manufactured by Bio-Rad.

[2] = system: human induced hepatic stem cells AFB1-1; assay: Quantitative RT-PCR, differentiation with TGF-β signaling inhibitors (Example 12); type: cell-based; conditions: cell samples Nos. 1545-1549: 0.5 μM inhibitor in ReproStem (bFGF-free), no feeder cells, Matrigel, 13 days after seeding; for KRT7 expression ratio: No. 1543 taken as 1; for GAPDH expression Ct value: housekeeping gene
Description: The resultant cell samples are respectively referred to as “Nos. 1545-1549”. No. 1544 was cultured in the absence of any inhibitor. Nos. 1545-1549 were cultured in the presence of the following inhibitors, respectively.
Thirteen days after the seeding, the cells were lysed in 1 mL/well of a QIAzol reagent to prepare the total RNA from the cell lysate using the miRNeasy Mini Kit (Qiagen). The total RNA was subjected to quantitative RT-PCR using the iScript Advanced cDNA synthesis kit, the SsoAdvanced SYBR Green Supremix ([…]), and the CFX96 Real-Time System C1000 Thermal Cycler, all manufactured by Bio-Rad. The quantified genes were ALB, AAT, TTR, AFP, cytokeratin 7 (KRT7), cytokeratin 19 (KRT19), and DLK1 (Delta-like 1 homolog).

[3] = system: human induced hepatic stem cells AFB1-1; assay: AFP in culture supernatant, hepatic differentiation on Matrigel (Examples 2-4); conditions: cell sample No. 391: aFGF 10 ng/mL/ReproStem (bFGF-free), no feeder cells, 13 days after seeding
[4] = system: human induced hepatic stem cells AFB1-1; assay: Quantitative RT-PCR of marker genes, hepatic differentiation on Matrigel (Examples 2-4); type: cell-based; conditions: cell sample No. 391: aFGF 10 ng/mL/ReproStem (bFGF-free), no feeder cells, 13 days, No. 377 taken as 1

Molecule | AAT expression ratio [1] | AFP expression ratio [1] | ALB expression ratio [1] | TTR expression ratio [1] | AAT expression Ct value [2] | AFP expression Ct value [2] | ALB expression Ct value [2] | DLK1 expression Ct value [2] | KRT7 expression Ct value [2] | KRT19 expression Ct value [2] | TTR expression Ct value [2] | KRT7 expression ratio [2] | GAPDH expression Ct value [2] | further results
c1ccc(-c2n[nH]cc2-c2ccnc3ccccc23)nc1 [LY-364947, 4-[3-(2-pyridinyl)-1H-pyrazol-4-yl]-quinoline] | 14.36 | 369.23 | 114.78 | 482.45 |  |  |  |  |  |  |  |  |  | 
NC(=O)c1ccc(-c2nc(-c3ccc4c(c3)OCO4)c(-c3ccccn3)[nH]2)cc1 [SB431542, 4-[4-(1,3-benzodioxol-5-yl)-5-pyridin-2-yl-1H-imidazol-2-yl]benzamide] | 12.15 | 394.40 | 94.46 | 614.17 |  |  |  |  |  |  |  |  |  | 
Cc1cccc(-c2[nH]c(C(C)(C)C)nc2-c2ccc3c(c2)OCO3)n1.Cl [SB-505124, 2-(5-benzo[1,3]dioxol-5-yl-2-tert-butyl-3H-imidazol-4-yl)-6-methylpyridine hydrochloride hydrate] |  |  |  |  | 23.56 | 18.61 | 23.2 | 18.77 | 19.8 | 20.33 | 17.24 | 2768 | 13.25 | 
Cc1cccc(-c2n[nH]cc2-c2ccc3ncccc3n2)n1 [compound 616451, 3-(pyridin-2-yl)-4-(4-quinonyl)-1H-pyrazole] | 13.45 | 747.65 | 163.71 | 966.14 |  |  |  |  |  |  |  |  |  | 
Cc1cccc(-c2n[nH]cc2-c2ccc3ncccc3n2)n1 [compound 616452, 2-(3-(6-methylpyridin-2-yl)-1H-pyrazol-4-yl)-1,5-naphthyridine] | 22.18 | 720.03 | 296.67 | 1,262.14 |  |  |  |  |  |  |  |  |  | 
Cc1cccc(-c2nc(C(C)(C)C)[nH]c2-c2ccc3c(c2)OCO3)n1 [compound 616453, HCl] |  |  |  |  | 24.09 | 20.24 | 25.55 | 18.74 | 19.45 | 20.29 | 18.13 | 4761 | 13.76 | 
Fc1ccc(Cl)cc1-c1nc(Nc2ccncc2)c2nccnc2n1 [compound 616456] |  |  |  |  | 23.54 | 17.48 | 21.35 | 19.1 | 20.05 | 20.45 | 17.4 | 3186 | 13.72 | 
Cc1cccc(-c2[nH]c(C(C)(C)C)nc2-c2ccc3nccnc3c2)n1 [compound 616459, 6-(2-tert-butyl-5-(6-methyl-pyridin-2-yl)-1H-imidazol-4-yl)-quinoxaline] |  |  |  |  | 23.54 | 19.25 | 24.67 | 18.66 | 19.89 | 20.36 | 17.24 | 4905 | 14.24 | 
aFGF: aFGF, 10 ng/mL supplement of bFGF-free ReproStem medium (cell sample No. 391) |  |  |  |  |  |  |  |  |  |  |  |  |  | α-fetoprotein (AFP) in culture supernatant [3]: 3,300 ng/mL; AAT expression level [4]: 220; AFP expression level [4]: 3,420; ALB expression level [4]: 3,172; DLK1 expression level [4]: 786; TTR expression level [4]: 3,910
